Where two headings read alike, the source gives them in different places.
Test system: human Ewing's sarcoma DM101
Assay type: in vivo
Details: for MTTE / T-C: volume endpoint 2000 mm^3; for tumor volume changes from baseline, Median +/− MAD: nude mice bearing DM101 Ewing's sarcoma; for Tumor Volume Data (Day 11) Median / ΔT/ΔC %: day 11
Procedure: The resultant solution contains 10 mg/mL of cabazitaxel. Stock solution of cabazitaxel was then diluted in 0.9% sodium chloride.
This efficacy may be quantified, for example, as changes in tumor volume for each treated (T) and control (C) group, which are calculated for each animal and each day by subtracting the tumor volume on the day of first treatment (staging day) from the tumor volume on the specified observation day. This allows calculating the tumor growth inhibition: ΔT/ΔC=(median delta T/median delta C)×100. Individual tumor volume changes from baseline are thereafter analyzed by a non-parametric two-way ANOVA-TYPE (with factors: group and repeated days) followed by a post-hoc contrasts analysis, with Bonferroni-Holm adjustment for multiplicity, comparing all treated groups to the control group. […] A probability less than 5% (p<0.05) was considered as significant.
Based on the National Cancer Institute (NCl) standards, a ΔT/ΔC≦40% is the minimal level required to declare activity.
This efficacy may also be quantified by the number of tumor regressions observed after therapy. Individual mice reporting a tumor volume ≦50% of the Day 0 measurement for two consecutive measurements over a seven day period were considered partial responders (PR). Individual mice lacking palpable tumors (<4×4 mm^2 for two consecutive measurements over a seven day period) were classified as complete responders (CR); a CR that persisted until study completion was considered a tumor-free survivor (TFS).
Efficacy could also be determined at study completion, using tumor growth delay (T-C) in days, which is calculated using the median time to endpoint (MTTE) value for each treatment (T) group versus control (C). A Log Rank multiple comparison test with Bonferroni-Holm adjustment for multiplicity was applied on individual TTE to compare the treated groups to the control group.
The animals subjected to the experiment are subcutaneously grafted unilaterally with approximately 30 mg of a tumor fragment from low passage pediatric patient-derived tumor xenografts. The animals are implanted with a human patient-derived pediatric tumor xenografted in immuno-compromised mice (Harlan; nu/nu). Several days post tumor implantation, mice are randomized according to their tumor burden to the different groups of treatments and controls. The agents are dosed intravenously at 5.8, 9.3, 15 or 24.2 mg/kg every 4 days for a total of 3 doses (q4d×3) to mice bearing a tumor burden at start of therapy (day 0) ranged from 125 to 250 mm^3.
Beginning Day 0, animals were observed daily and weighed twice weekly using a digital scale; data including individual and mean gram weights (Mean We±SD), mean percent weight change versus Day 0 were recorded for each group. Animal deaths were recorded daily and designated as drug-related (D), technical (T), tumor related (B), or unknown (U) based on weight loss and gross observation; single agent or combination groups reporting a mean >20% for a period of 7 days and/or >10% mortality were considered above the maximum tolerated dose (MTD) for that treatment on the evaluated regimen.
The selected tumor model, DM101, was a low passage patient-derived tumor xenograft derived from an Ewing's sarcoma taken from the bone of a patient.
The following end points were used: • Toxicity was declared at dosages inducing ≧20% body weight loss or ≧10% drug death; • Antitumor efficacy was determined by calculating the ΔT/ΔC value in percent on day 11 post treatment initiation, according to the above mentioned formula; • Individual tumor volume changes from baseline were analyzed by a non-parametric two-way ANOVA-TYPE (with factors: group and repeated day from 4 to 14) followed by a post-hoc contrasts analysis, with Bonferroni-Holm adjustment for multiplicity, comparing all treated groups to the control group on day 11. […] The volume endpoint for T-C calculations was chosen to be 2000 mm^3.

Structure (SMILES): CC(=O)O[C@@]12CO[C@@H]1C[C@H](O)[C@@]1(C)C(=O)[C@H](O)C3=C(C)[C@@H](OC(=O)[C@H](O)[C@@H](NC(=O)OC(C)(C)C)c4ccccc4)C[C@@](O)([C@@H](OC(=O)c4ccccc4)[C@H]21)C3(C)C [Docetaxel, docetaxel]
- #CR (5.8 mg/kg i.v./q4d × 3): 0/0/0
- #PR (5.8 mg/kg i.v./q4d × 3): 0/0/0
- #TFS (5.8 mg/kg i.v./q4d × 3): 0/0/0
- Drug Deaths Total (5.8 mg/kg i.v./q4d × 3): 0
- Weight Nadir % (5.8 mg/kg i.v./q4d × 3): −1%
- Weight Nadir Day (5.8 mg/kg i.v./q4d × 3): 4
- Tumor Volume Data (Day 11) Median (5.8 mg/kg i.v./q4d × 3): 366 mm^3
- MTTE (5.8 mg/kg i.v./q4d × 3): 35 days
- T-C (5.8 mg/kg i.v./q4d × 3): 18.1 days
- tumor volume changes from baseline, Median +/− MAD (5.8 mg/kg, DAY 4): 51 +/− 38
- tumor volume changes from baseline, Median +/− MAD (5.8 mg/kg, DAY 7): 98 +/− 79
- tumor volume changes from baseline, Median +/− MAD (5.8 mg/kg, DAY 11): 202 +/− 183
- tumor volume changes from baseline, Median +/− MAD (5.8 mg/kg, DAY 14): 446 +/− 393
- tumor volume changes from baseline, Median +/− MAD (5.8 mg/kg, DAY 17): 640 +/− 621
- tumor volume changes from baseline, Median +/− MAD (5.8 mg/kg, DAY 20): 813 +/− 756
- tumor volume changes from baseline, Median +/− MAD (5.8 mg/kg, DAY 25): 766 +/− 478
- tumor volume changes from baseline, Median +/− MAD (5.8 mg/kg, DAY 28): 1140 +/− 564
- tumor volume changes from baseline, Median +/− MAD (5.8 mg/kg, DAY 32): 1694 +/− 281
- #CR (9.3 mg/kg i.v./q4d × 3): 4
- #PR (9.3 mg/kg i.v./q4d × 3): 4
- #TFS (9.3 mg/kg i.v./q4d × 3): 1
- Drug Deaths Total (9.3 mg/kg i.v./q4d × 3): 0
- Weight Nadir % (9.3 mg/kg i.v./q4d × 3): −4%
- Weight Nadir Day (9.3 mg/kg i.v./q4d × 3): 7
- Tumor Volume Data (Day 11) Median (9.3 mg/kg i.v./q4d × 3): 505 mm^3
- ΔT/ΔC % (9.3 mg/kg i.v./q4d × 3): 36.8%
- MTTE (9.3 mg/kg i.v./q4d × 3): 30.5 days
- T-C (9.3 mg/kg i.v./q4d × 3): 13.6 days
- tumor volume changes from baseline, Median +/− MAD (9.3 mg/kg, DAY 4): 25 +/− 25
- tumor volume changes from baseline, Median +/− MAD (9.3 mg/kg, DAY 7): 96 +/− 172
- tumor volume changes from baseline, Median +/− MAD (9.3 mg/kg, DAY 11): 301 +/− 223
- tumor volume changes from baseline, Median +/− MAD (9.3 mg/kg, DAY 14): 472 +/− 550
- tumor volume changes from baseline, Median +/− MAD (9.3 mg/kg, DAY 17): 750 +/− 828
- tumor volume changes from baseline, Median +/− MAD (9.3 mg/kg, DAY 20): 813 +/− 891
- tumor volume changes from baseline, Median +/− MAD (9.3 mg/kg, DAY 25): −78 +/− 110
- tumor volume changes from baseline, Median +/− MAD (9.3 mg/kg, DAY 28): −78 +/− 36
- tumor volume changes from baseline, Median +/− MAD (9.3 mg/kg, DAY 32): −78 +/− 34
- #CR (15 mg/kg i.v./q4d × 3): 4
- #PR (15 mg/kg i.v./q4d × 3): 4
- #TFS (15 mg/kg i.v./q4d × 3): 1
- Drug Deaths Total (15 mg/kg i.v./q4d × 3): 0
- Weight Nadir % (15 mg/kg i.v./q4d × 3): −6%
- Weight Nadir Day (15 mg/kg i.v./q4d × 3): 14
- Tumor Volume Data (Day 11) Median (15 mg/kg i.v./q4d × 3): 204 mm^3
- ΔT/ΔC % (15 mg/kg i.v./q4d × 3): 8.9%
- MTTE (15 mg/kg i.v./q4d × 3): 50.9 days
- T-C (15 mg/kg i.v./q4d × 3): 34 days
- CR (15 mg/kg q4d×3 IV): 4/9
- TFS (15 mg/kg q4d×3 IV): 1/9
- tumor volume changes from baseline, Median +/− MAD (15 mg/kg, DAY 4): 26 +/− 25
- tumor volume changes from baseline, Median +/− MAD (15 mg/kg, DAY 7): 73 +/− 109
- tumor volume changes from baseline, Median +/− MAD (15 mg/kg, DAY 11): 73 +/− 186
- tumor volume changes from baseline, Median +/− MAD (15 mg/kg, DAY 14): 73 +/− 251
- tumor volume changes from baseline, Median +/− MAD (15 mg/kg, DAY 17): 169 +/− 347
- tumor volume changes from baseline, Median +/− MAD (15 mg/kg, DAY 20): 290 +/− 468
- tumor volume changes from baseline, Median +/− MAD (15 mg/kg, DAY 25): −78 +/− 100
- tumor volume changes from baseline, Median +/− MAD (15 mg/kg, DAY 28): −84.5 +/− 70
- tumor volume changes from baseline, Median +/− MAD (15 mg/kg, DAY 32): −91 +/− 40
- #CR (24.2 mg/kg i.v./q4d × 3): 3
- #PR (24.2 mg/kg i.v./q4d × 3): 4
- #TFS (24.2 mg/kg i.v./q4d × 3): 2
- Drug Deaths Total (24.2 mg/kg i.v./q4d × 3): 0
- Weight Nadir % (24.2 mg/kg i.v./q4d × 3): −17%
- Weight Nadir Day (24.2 mg/kg i.v./q4d × 3): 14
- Tumor Volume Data (Day 11) Median (24.2 mg/kg i.v./q4d × 3): 300 mm^3
- ΔT/ΔC % (24.2 mg/kg i.v./q4d × 3): 14.9%
- MTTE (24.2 mg/kg i.v./q4d × 3): 32.3 days
- T-C (24.2 mg/kg i.v./q4d × 3): 15.4 days
- CR (24.2 mg/kg q4d×3 IV): 3/9
- TFS (24.2 mg/kg q4d×3 IV): 2/9
- tumor volume changes from baseline, Median +/− MAD (24.2 mg/kg, DAY 4): 26 +/− 40
- tumor volume changes from baseline, Median +/− MAD (24.2 mg/kg, DAY 7): 122
- tumor volume changes from baseline, Median +/− MAD (24.2 mg/kg, DAY 11): 122
- tumor volume changes from baseline, Median +/− MAD (24.2 mg/kg, DAY 14): 122
- tumor volume changes from baseline, Median +/− MAD (24.2 mg/kg, DAY 17): 122
- tumor volume changes from baseline, Median +/− MAD (24.2 mg/kg, DAY 20): 394
- tumor volume changes from baseline, Median +/− MAD (24.2 mg/kg, DAY 25): 351.5
- tumor volume changes from baseline, Median +/− MAD (24.2 mg/kg, DAY 28): 681
- tumor volume changes from baseline, Median +/− MAD (24.2 mg/kg, DAY 32): 254
